Reference: ChEMBL document CHEMBL1909046, “DrugMatrix in vitro pharmacology data”

Molecular target: Mitogen-activated protein kinase 1 (Homo sapiens, UniProt P28482)
Test: DRUGMATRIX: Protein Serine/Threonine Kinase, ERK2 enzyme inhibition (substrate: Myelin Basic Protein)
Design: species or system Escherichia coli
Conditions: Not Active = under 50% inhibition at 10 µM

Sequence of Mitogen-activated protein kinase 1 (P28482 whole entry): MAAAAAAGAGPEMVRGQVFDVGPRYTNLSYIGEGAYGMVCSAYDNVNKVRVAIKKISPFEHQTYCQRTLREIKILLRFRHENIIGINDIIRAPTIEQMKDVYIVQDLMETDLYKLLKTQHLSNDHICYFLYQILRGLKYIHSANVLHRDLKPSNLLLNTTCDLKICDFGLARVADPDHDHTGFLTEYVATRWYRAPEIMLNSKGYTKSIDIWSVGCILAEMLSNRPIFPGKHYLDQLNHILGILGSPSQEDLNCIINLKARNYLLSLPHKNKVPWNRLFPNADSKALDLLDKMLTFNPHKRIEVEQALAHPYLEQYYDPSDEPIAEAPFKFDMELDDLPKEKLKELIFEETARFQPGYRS

Molecule | IC50 | Ki
CCCN(CCC)S(=O)(=O)c1ccc(C(=O)O)cc1 [PROBENECID] | Not Active | –
CCCOc1ccc(C(=O)OCCN(CC)CC)cc1N [PROPARACAINE] | Not Active | –
C[C@@H]1O[C@@H](O[C@@H]2C=C3CC[C@@H]4[C@H](CC[C@]5(C)[C@@H](c6ccc(=O)oc6)CC[C@]45O)[C@@]3(C)CC2)[C@H](O)[C@H](O)[C@H]1O [PROSCILLARIDIN] | Not Active | –
Oc1cccc(O)c1O [PYROGALLOL] | Not Active | –
AURANOFIN | Not Active | Not Active
GADOPENTETATE DIMEGLUMINE | Not Active | Not Active
GENTAMICIN | Not Active | Not Active
GRAMICIDIN | Not Active | Not Active
NYSTATIN | Not Active | Not Active

Molecular target: Cytochrome P450 2C19 (Homo sapiens, UniProt P33261); further: in other assays of this panel Not Active means under 50% inhibition at 10 µM
Conditions: bti-tn-5b1-4

Sequence of Cytochrome P450 2C19 (P33261 whole entry): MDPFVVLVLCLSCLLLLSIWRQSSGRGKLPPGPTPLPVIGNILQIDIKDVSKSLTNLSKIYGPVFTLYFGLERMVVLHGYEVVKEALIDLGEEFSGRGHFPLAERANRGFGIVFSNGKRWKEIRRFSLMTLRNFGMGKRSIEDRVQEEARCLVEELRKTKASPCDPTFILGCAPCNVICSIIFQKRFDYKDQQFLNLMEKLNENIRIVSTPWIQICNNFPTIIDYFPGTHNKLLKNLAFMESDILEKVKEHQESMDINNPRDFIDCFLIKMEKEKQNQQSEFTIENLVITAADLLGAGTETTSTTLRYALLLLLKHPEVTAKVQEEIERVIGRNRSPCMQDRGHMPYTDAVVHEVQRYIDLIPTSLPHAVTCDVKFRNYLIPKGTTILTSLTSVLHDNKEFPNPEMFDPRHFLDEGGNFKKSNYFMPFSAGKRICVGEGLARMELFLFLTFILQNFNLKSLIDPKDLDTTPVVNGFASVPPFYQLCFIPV

Molecule | IC50 | Ki
CCCN(CCC)S(=O)(=O)c1ccc(C(=O)O)cc1 [PROBENECID] | Not Active | Not Active
CCCOc1ccc(C(=O)OCCN(CC)CC)cc1N [PROPARACAINE] | Not Active | Not Active
C[C@@H]1O[C@@H](O[C@@H]2C=C3CC[C@@H]4[C@H](CC[C@]5(C)[C@@H](c6ccc(=O)oc6)CC[C@]45O)[C@@]3(C)CC2)[C@H](O)[C@H](O)[C@H]1O [PROSCILLARIDIN] | Not Active | Not Active
Oc1cccc(O)c1O [PYROGALLOL] | Not Active | Not Active
AURANOFIN | Not Active | Not Active
GADOPENTETATE DIMEGLUMINE | Not Active | Not Active
GENTAMICIN | Not Active | Not Active
GRAMICIDIN | Not Active | Not Active
NYSTATIN | Not Active | Not Active

Molecular target: Carbonic anhydrase 2 (Homo sapiens, UniProt P00918)
Test: DRUGMATRIX: Carbonic Anhydrase II enzyme inhibition (substrate: 4-Nitrophenyl acetate (4-NPA))
Type: tissue-based
Conditions: erythrocyte; Not Active = under 50% inhibition at 10 µM

Molecule | IC50 | Ki
CCCN(CCC)S(=O)(=O)c1ccc(C(=O)O)cc1 [PROBENECID] | Not Active | –
CCCOc1ccc(C(=O)OCCN(CC)CC)cc1N [PROPARACAINE] | Not Active | –
C[C@@H]1O[C@@H](O[C@@H]2C=C3CC[C@@H]4[C@H](CC[C@]5(C)[C@@H](c6ccc(=O)oc6)CC[C@]45O)[C@@]3(C)CC2)[C@H](O)[C@H](O)[C@H]1O [PROSCILLARIDIN] | Not Active | –
Oc1cccc(O)c1O [PYROGALLOL] | Not Active | –
AURANOFIN | Not Active | Not Active
GADOPENTETATE DIMEGLUMINE | Not Active | Not Active
GENTAMICIN | Not Active | Not Active
GRAMICIDIN | Not Active | Not Active
NYSTATIN | Not Active | Not Active

Molecular target: T1, D(4) dopamine receptor (Homo sapiens, UniProt P21917)
T1 sequence (P21917 whole entry): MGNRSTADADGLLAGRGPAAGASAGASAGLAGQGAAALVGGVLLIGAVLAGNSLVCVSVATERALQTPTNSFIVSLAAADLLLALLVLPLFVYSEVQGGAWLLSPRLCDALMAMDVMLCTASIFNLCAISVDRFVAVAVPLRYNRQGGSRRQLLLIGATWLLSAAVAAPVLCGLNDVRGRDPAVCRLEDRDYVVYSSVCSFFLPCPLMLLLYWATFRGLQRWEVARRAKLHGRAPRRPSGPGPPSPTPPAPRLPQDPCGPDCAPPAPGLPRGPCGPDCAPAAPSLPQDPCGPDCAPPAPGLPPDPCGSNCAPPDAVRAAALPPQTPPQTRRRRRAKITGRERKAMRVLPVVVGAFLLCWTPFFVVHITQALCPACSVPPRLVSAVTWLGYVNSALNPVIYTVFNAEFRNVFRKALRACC
Test: DRUGMATRIX: Dopamine D4.2 radioligand binding (ligand: [3H] Spiperone)
Type: cell membranes, CHO-K1, Membrane
Conditions: cho-k1; Not Active = under 50% inhibition at 10 µM

Molecule | IC50 | Ki
CCCN(CCC)S(=O)(=O)c1ccc(C(=O)O)cc1 [PROBENECID] | Not Active | –
CCCOc1ccc(C(=O)OCCN(CC)CC)cc1N [PROPARACAINE] | Not Active | –
C[C@@H]1O[C@@H](O[C@@H]2C=C3CC[C@@H]4[C@H](CC[C@]5(C)[C@@H](c6ccc(=O)oc6)CC[C@]45O)[C@@]3(C)CC2)[C@H](O)[C@H](O)[C@H]1O [PROSCILLARIDIN] | Not Active | –
Oc1cccc(O)c1O [PYROGALLOL] | Not Active | –
GADOPENTETATE DIMEGLUMINE | Not Active | Not Active
GENTAMICIN | Not Active | Not Active
GRAMICIDIN | Not Active | Not Active
NYSTATIN | Not Active | Not Active

Same assay, conditions: cho-k1; Not Active = under 50% inhibition at 10 µM; read-out: Ki

Molecule | Ki [nM]
AURANOFIN | 394

Molecular target: T2, Nitric oxide synthase, inducible (Mus musculus, UniProt P29477);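 further: inhibition of iNOS enzyme activity measured with L-arginine as substrate; in other assays of this panel Not Active means under 50% inhibition at 10 µM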
T2 sequence (P29477 whole entry): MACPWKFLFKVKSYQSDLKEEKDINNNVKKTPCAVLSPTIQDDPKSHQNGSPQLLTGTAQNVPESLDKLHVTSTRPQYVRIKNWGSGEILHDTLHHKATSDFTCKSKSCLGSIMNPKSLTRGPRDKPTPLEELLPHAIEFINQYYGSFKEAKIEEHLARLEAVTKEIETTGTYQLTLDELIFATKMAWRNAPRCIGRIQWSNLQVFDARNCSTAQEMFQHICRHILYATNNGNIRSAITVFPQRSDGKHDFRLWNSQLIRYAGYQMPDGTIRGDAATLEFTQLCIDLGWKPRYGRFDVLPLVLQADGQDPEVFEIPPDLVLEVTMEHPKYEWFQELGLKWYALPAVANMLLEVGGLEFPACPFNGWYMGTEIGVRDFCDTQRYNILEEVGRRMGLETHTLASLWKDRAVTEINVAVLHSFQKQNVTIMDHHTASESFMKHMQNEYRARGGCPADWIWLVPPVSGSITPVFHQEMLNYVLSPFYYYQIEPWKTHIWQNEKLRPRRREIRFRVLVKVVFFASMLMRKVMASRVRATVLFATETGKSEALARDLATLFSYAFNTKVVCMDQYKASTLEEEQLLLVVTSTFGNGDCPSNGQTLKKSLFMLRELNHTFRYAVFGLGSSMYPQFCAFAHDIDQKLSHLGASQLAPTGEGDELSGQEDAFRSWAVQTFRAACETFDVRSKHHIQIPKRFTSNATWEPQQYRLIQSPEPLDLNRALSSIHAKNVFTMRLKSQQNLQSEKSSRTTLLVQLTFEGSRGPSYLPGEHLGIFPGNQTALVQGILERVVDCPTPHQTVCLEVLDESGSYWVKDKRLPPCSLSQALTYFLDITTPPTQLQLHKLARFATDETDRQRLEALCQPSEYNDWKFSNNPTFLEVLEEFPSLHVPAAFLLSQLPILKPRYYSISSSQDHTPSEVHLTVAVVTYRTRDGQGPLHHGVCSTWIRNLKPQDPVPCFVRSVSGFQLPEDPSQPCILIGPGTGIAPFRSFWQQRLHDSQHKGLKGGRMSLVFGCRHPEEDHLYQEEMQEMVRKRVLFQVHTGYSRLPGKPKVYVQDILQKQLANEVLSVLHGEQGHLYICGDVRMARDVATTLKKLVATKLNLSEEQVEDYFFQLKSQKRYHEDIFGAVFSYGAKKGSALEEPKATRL
Design: species or system Escherichia coli
Conditions: not given

Molecule | IC50 | Ki
CCCN(CCC)S(=O)(=O)c1ccc(C(=O)O)cc1 [PROBENECID] | Not Active | –
CCCOc1ccc(C(=O)OCCN(CC)CC)cc1N [PROPARACAINE] | Not Active | –
C[C@@H]1O[C@@H](O[C@@H]2C=C3CC[C@@H]4[C@H](CC[C@]5(C)[C@@H](c6ccc(=O)oc6)CC[C@]45O)[C@@]3(C)CC2)[C@H](O)[C@H](O)[C@H]1O [PROSCILLARIDIN] | Not Active | –
Oc1cccc(O)c1O [PYROGALLOL] | Not Active | –
AURANOFIN | Not Active | Not Active
GADOPENTETATE DIMEGLUMINE | Not Active | Not Active
GENTAMICIN | Not Active | Not Active
GRAMICIDIN | Not Active | Not Active
NYSTATIN | Not Active | Not Active

System: not listed separately
Test: DRUGMATRIX: Glutamate, NMDA, Phencyclidine radioligand binding (ligand: [3H] TCP)
Type: cell membranes, Rattus norvegicus, Wistar, Cerebral cortex, Membrane
Conditions: Not Active = under 50% inhibition at 10 µM

Molecule | IC50 | Ki
CCCN(CCC)S(=O)(=O)c1ccc(C(=O)O)cc1 [PROBENECID] | Not Active | Not Active
CCCOc1ccc(C(=O)OCCN(CC)CC)cc1N [PROPARACAINE] | Not Active | Not Active
C[C@@H]1O[C@@H](O[C@@H]2C=C3CC[C@@H]4[C@H](CC[C@]5(C)[C@@H](c6ccc(=O)oc6)CC[C@]45O)[C@@]3(C)CC2)[C@H](O)[C@H](O)[C@H]1O [PROSCILLARIDIN] | Not Active | Not Active
Oc1cccc(O)c1O [PYROGALLOL] | Not Active | Not Active
AURANOFIN | Not Active | Not Active
GADOPENTETATE DIMEGLUMINE | Not Active | Not Active
GENTAMICIN | Not Active | Not Active
GRAMICIDIN | Not Active | Not Active
NYSTATIN | Not Active | Not Active

Molecular target: Tyrosine-protein kinase Lck (Homo sapiens, UniProt P06239)
Test: DRUGMATRIX: Protein Tyrosine Kinase, LCK enzyme inhibition (substrate: Poly(Glu:Tyr))
Type: cell-based, Insect cells
Conditions: insect cells; Not Active = under 50% inhibition at 10 µM

Sequence of Tyrosine-protein kinase Lck (P06239 whole entry): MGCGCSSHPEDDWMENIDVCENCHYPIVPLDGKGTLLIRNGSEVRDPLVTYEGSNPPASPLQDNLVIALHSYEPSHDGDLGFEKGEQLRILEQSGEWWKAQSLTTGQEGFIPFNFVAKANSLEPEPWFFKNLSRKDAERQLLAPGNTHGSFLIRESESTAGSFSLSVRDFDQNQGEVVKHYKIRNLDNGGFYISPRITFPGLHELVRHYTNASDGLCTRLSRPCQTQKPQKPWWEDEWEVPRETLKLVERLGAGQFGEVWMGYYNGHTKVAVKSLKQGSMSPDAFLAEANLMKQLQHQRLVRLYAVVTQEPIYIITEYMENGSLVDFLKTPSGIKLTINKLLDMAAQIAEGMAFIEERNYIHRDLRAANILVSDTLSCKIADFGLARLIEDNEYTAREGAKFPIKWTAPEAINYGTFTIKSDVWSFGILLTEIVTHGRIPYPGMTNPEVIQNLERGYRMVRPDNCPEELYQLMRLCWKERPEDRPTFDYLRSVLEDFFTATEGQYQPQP

Molecule | IC50 | Ki
CCCN(CCC)S(=O)(=O)c1ccc(C(=O)O)cc1 [PROBENECID] | Not Active | –
CCCOc1ccc(C(=O)OCCN(CC)CC)cc1N [PROPARACAINE] | Not Active | –
C[C@@H]1O[C@@H](O[C@@H]2C=C3CC[C@@H]4[C@H](CC[C@]5(C)[C@@H](c6ccc(=O)oc6)CC[C@]45O)[C@@]3(C)CC2)[C@H](O)[C@H](O)[C@H]1O [PROSCILLARIDIN] | Not Active | –
Oc1cccc(O)c1O [PYROGALLOL] | Not Active | –
AURANOFIN | Not Active | Not Active
GADOPENTETATE DIMEGLUMINE | Not Active | Not Active
GENTAMICIN | Not Active | Not Active
NYSTATIN | Not Active | Not Active

Same assay, conditions: insect cells; Not Active = under 50% inhibition at 10 µM; read-out: IC50

Molecule | IC50 [nM]
GRAMICIDIN | 1090

Molecular target: T3, Cytochrome P450 1A2 (Homo sapiens, UniProt P05177); further: in other assays of this panel Not Active means under 50% inhibition at 10 µM
T3 sequence (P05177 whole entry): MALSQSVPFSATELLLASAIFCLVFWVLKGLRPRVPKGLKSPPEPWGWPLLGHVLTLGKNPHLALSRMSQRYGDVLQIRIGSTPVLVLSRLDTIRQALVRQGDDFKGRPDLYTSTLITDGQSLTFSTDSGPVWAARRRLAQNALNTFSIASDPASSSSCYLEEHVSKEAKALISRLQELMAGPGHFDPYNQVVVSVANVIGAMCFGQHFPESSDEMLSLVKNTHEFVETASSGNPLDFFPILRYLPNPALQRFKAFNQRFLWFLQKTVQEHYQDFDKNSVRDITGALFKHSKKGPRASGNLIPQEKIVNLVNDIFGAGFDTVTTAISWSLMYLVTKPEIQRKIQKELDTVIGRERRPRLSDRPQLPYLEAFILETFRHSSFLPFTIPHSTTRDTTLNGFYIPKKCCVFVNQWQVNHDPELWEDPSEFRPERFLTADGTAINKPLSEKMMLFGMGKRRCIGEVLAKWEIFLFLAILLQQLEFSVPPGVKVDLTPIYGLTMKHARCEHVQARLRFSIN
Conditions: bti-tn-5b1-4

Molecule | IC50 | Ki
CCCN(CCC)S(=O)(=O)c1ccc(C(=O)O)cc1 [PROBENECID] | Not Active | Not Active
CCCOc1ccc(C(=O)OCCN(CC)CC)cc1N [PROPARACAINE] | Not Active | Not Active
C[C@@H]1O[C@@H](O[C@@H]2C=C3CC[C@@H]4[C@H](CC[C@]5(C)[C@@H](c6ccc(=O)oc6)CC[C@]45O)[C@@]3(C)CC2)[C@H](O)[C@H](O)[C@H]1O [PROSCILLARIDIN] | Not Active | Not Active
Oc1cccc(O)c1O [PYROGALLOL] | Not Active | Not Active
AURANOFIN | Not Active | Not Active
GADOPENTETATE DIMEGLUMINE | Not Active | Not Active
GENTAMICIN | Not Active | Not Active
GRAMICIDIN | Not Active | Not Active
NYSTATIN | Not Active | Not Active
